Target: human orexin 2 receptor (Homo sapiens (Human), UniProt O43614)
Assay: Human orexin 2 receptor Ca2+ mobilization assay (FLIPR, PFSK cells, orexin B 100 nM)
Assay type: cell-based
Conditions: modified Cheng-Prusoff correction, read-out: OR 2 Kb
Protocol: Human Orexin 2 Receptor Ca^2+ Mobilization Assay
Cells were seeded on to 96-well Packard viewplates at a density of 50,000 cells/well and incubated overnight at 37° C., 5% CO2. The cells were dye-loaded with 4 μM Ca^2+ dye Fluo-3AM in serum-free DMEM/F-12 with 2.5 mM probenecid and incubated at 37° C., 5% CO2 for one hour. Cells were pre-incubated with compounds (diluted in DMEM/F-12) for 30 minutes before agonist (orexin B, 100 nM) stimulation. Ligand-induced Ca^2+ release was measured using a Fluorometric Imaging Plate Reader (FLIPR, Molecular Devices, Sunnyvale, Calif.). Functional responses were measured as peak fluorescence intensity minus basal. The concentration of agonist that produced a half-maximal response is represented by the EC50 value. Antagonistic potency values were converted to apparent pKB values using a modified Cheng-Prusoff correction. Apparent pKB=−log IC50/1+[conc agonist/EC50]. Data are expressed as mean±S.E.M, the designation of NT means not tested.

Sequence of human orexin 2 receptor (O43614 whole entry): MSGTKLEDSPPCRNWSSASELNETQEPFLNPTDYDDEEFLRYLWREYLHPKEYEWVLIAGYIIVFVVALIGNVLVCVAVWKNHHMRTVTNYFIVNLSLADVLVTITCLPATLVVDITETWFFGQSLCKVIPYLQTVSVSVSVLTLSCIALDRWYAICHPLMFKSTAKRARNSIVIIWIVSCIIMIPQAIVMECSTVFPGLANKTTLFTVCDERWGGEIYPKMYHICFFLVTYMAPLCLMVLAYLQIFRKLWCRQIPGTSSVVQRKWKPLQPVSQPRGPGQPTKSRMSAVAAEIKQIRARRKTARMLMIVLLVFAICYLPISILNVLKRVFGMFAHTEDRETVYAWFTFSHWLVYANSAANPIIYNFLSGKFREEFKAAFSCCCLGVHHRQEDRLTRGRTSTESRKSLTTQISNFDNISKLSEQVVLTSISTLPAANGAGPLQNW

Row | Structure (SMILES) | Kb [nM]
1 | CCOc1ccccc1C(=O)N1CC2CN(c3nc(C)cc(C)n3)CC2C1 (stereo not shown) [Example 88, 2-(4,6-Dimethylpyrimidin-2-yl)-5-[(2-ethoxyphenyl)carbonyl]octahydropyrrolo[3,4-c]pyrrole] | 25
2 | Cc1cc(C)nc(N2CC3CN(C(=O)c4ccc(F)c5ccccc45)CC3C2)n1 (stereo not shown) [Example 90, 2-(4,6-Dimethylpyrimidin-2-yl)-5-[(4-fluoronaphthalen-1-yl)carbonyl]octahydro-pyrrolo[3,4-c]pyrrole] | 25
3 | Cc1cc(C)nc(N2CC3CN(C(=O)c4cccc5ccccc45)CC3C2)n1 (stereo not shown) [Example 93, 2-(4,6-Dimethylpyrimidin-2-yl)-5-(naphthalen-1-ylcarbonyl)octahydropyrrolo[3,4-c]pyrrole] | 40
4 | Cc1cc(N2CC3CN(C(=O)c4ccccc4-c4nnc[nH]4)CC3C2)nc(C(F)(F)F)n1 (stereo not shown) [Example 96, 2-[6-Methyl-2-(trifluoromethyl)pyrimidin-4-yl]-5-{[2-(4H-1,2,4-triazol-3-yl)phenyl]carbonyl}octahydropyrrolo[3,4-c]pyrrole] | 50
5 | Cc1cc(N2CC3CN(C(=O)c4ccccc4-n4nccn4)CC3C2)nc(C(F)(F)F)n1 (stereo not shown) [Example 97, 2-[6-Methyl-2-(trifluoromethyl)pyrimidin-4-yl]-5-{[2-(2H-1,2,3-triazol-2-yl)phenyl]carbonyl}octahydropyrrolo[3,4-c]pyrrole] | 16
6 | Cc1cc(N2CC3CN(C(=O)c4c(F)cccc4-n4nccn4)CC3C2)nc(C(F)(F)F)n1 (stereo not shown) [Example 98, 2-{[2-Fluoro-6-(2H-1,2,3-triazol-2-yl)phenyl]carbonyl}-5-[6-methyl-2-(trifluoromethyl)pyrimidin-4-yl]octahydropyrrolo[3,4-c]pyrrole] | 10
7 | Cc1cc(N2CC3CN(C(=O)c4ccc(F)cc4-n4nccn4)CC3C2)nc(C(F)(F)F)n1 (stereo not shown) [Example 99, 2-{[4-Fluoro-2-(2H-1,2,3-triazol-2-yl)phenyl]carbonyl}-5-[6-methyl-2-(trifluoromethyl)pyrimidin-4-yl]octahydropyrrolo[3,4-c]pyrrole] | 16
8 | Cc1cnc(C)c(N2CC3CN(C(=O)c4c(F)cccc4-n4nccn4)CC3C2)n1 (stereo not shown) [Example 101, 2-(3,6-Dimethylpyrazin-2-yl)-5-{[2-fluoro-6-(2H-1,2,3-triazol-2-yl)phenyl]carbonyl}octahydropyrrolo[3,4-c]pyrrole] | 25
9 | Cc1ccc(-c2ncccn2)c(C(=O)N2CC3CN(c4nc(C)cc(C)n4)CC3C2)c1 (stereo not shown) [Example 102, 2-(4,6-Dimethylpyrimidin-2-yl)-5-[(5-methyl-2-pyrimidin-2-ylphenyl)carbonyl]octahydropyrrolo[3,4-c]pyrrole] | 6
10 | Cc1ccc(-c2ncccn2)c(C(=O)N2CC3CN(c4nc(C)cnc4C)CC3C2)c1 (stereo not shown) [Example 103, 2-(3,6-Dimethylpyrazin-2-yl)-5-[(5-methyl-2-pyrimidin-2-ylphenyl)carbonyl]octahydropyrrolo[3,4-c]pyrrole] | 32
11 | Cc1cnc(C)c(N2CC3CN(C(=O)c4ccc(F)cc4-n4nccn4)CC3C2)n1 (stereo not shown) [Example 104, 2-(3,6-Dimethylpyrazin-2-yl)-5-{[4-fluoro-2-(2H-1,2,3-triazol-2-yl)phenyl]carbonyl}octahydropyrrolo[3,4-c]pyrrole] | 25
12 | CN(C)c1nc(N2CC3CN(C(=O)c4c(F)cccc4-n4nccn4)CC3C2)cc(C(F)(F)F)n1 (stereo not shown) [Example 106, 4-[5-{[2-Fluoro-6-(2H-1,2,3-triazol-2-yl)phenyl]carbonyl}hexahydropyrrolo[3,4-c]pyrrol-2(1H)-yl]-N,N-dimethyl-6-(trifluoromethyl)pyrimidin-2-amine] | 20
13 | Cc1ccc(-c2ncccn2)c(C(=O)N2CC3CN(c4cc(C(F)(F)F)nc(N(C)C)n4)CC3C2)c1 (stereo not shown) [Example 108, N,N-Dimethyl-4-{5-[(5-methyl-2-pyrimidin-2-ylphenyl)carbonyl]hexahydropyrrolo[3,4-c]pyrrol-2(1H)-yl}-6-(trifluoromethyl)pyrimidin-2-amine] | 25
14 | CN(C)c1nc(N2CC3CN(C(=O)c4cc(F)ccc4-c4ncccn4)CC3C2)cc(C(F)(F)F)n1 (stereo not shown) [Example 109, 4-{5-[(5-Fluoro-2-pyrimidin-2-ylphenyl)carbonyl]hexahydropyrrolo[3,4-c]pyrrol-2(1H)-yl}-N,N-dimethyl-6-(trifluoromethyl)pyrimidin-2-amine] | 25
15 | CN(C)c1nc(N2CC3CN(C(=O)c4cc(F)ccc4-n4nccn4)CC3C2)cc(C(F)(F)F)n1 (stereo not shown) [Example 110, 4-[5-{[5-Fluoro-2-(2H-1,2,3-triazol-2-yl)phenyl]carbonyl}hexahydropyrrolo[3,4-c]pyrrol-2(1H)-yl]-N, N-dimethyl-6-(trifluoromethyl)pyrimidin-2-amine] | 32
16 | CN(C)c1nc(N2CC3CN(C(=O)c4ccc(F)cc4-n4nccn4)CC3C2)cc(C(F)(F)F)n1 (stereo not shown) [Example 111, [5-(2-Dimethylamino-6-trifluoromethyl-pyrimidin-4-yl)-hexahydro-pyrrolo[3,4-c]pyrrol-2-yl]-(4-fluoro-2-[1,2,3]triazol-2-yl-phenyl)-methanone] | 16

Row | Structure (SMILES) | Kb [nM]
17 | Cc1ccc(-c2ncccn2)c(C(=O)N2CC3CN(c4cc(C)nc(C(F)(F)F)n4)CC3C2)c1 (stereo not shown) [Example 112, 2-[(5-Methyl-2-pyrimidin-2-ylphenyl)carbonyl]-5-[6-methyl-2-(trifluoromethyl)pyrimidin-4-yl]octahydropyrrolo[3,4-c]pyrrole] | 20
18 | O=C(c1cc(F)ccc1-c1ncccn1)N1CC2CN(c3nccc(-c4ccccc4)n3)CC2C1 (stereo not shown) [Example 113, 2-[(5-Fluoro-2-pyrimidin-2-ylphenyl)carbonyl]-5-(4-phenylpyrimidin-2-yl)octahydropyrrolo[3,4-c]pyrrole] | 63
19 | CN(C)c1nc(N2CC3CN(C(=O)c4c(F)cccc4-c4ncccn4)CC3C2)cc(C(F)(F)F)n1 (stereo not shown) [Example 116, 4-{5-[(2-Fluoro-6-pyrimidin-2-ylphenyl)carbonyl]hexahydropyrrolo[3,4-c]pyrrol-2(1H)-yl}-N,N-dimethyl-6-(trifluoromethyl)pyrimidin-2-amine] | 13
20 | Cc1cc(N2CC3CN(C(=O)c4c(F)cccc4-c4ncccn4)CC3C2)nc(C(F)(F)F)n1 (stereo not shown) [Example 117, 2-[(2-Fluoro-6-pyrimidin-2-ylphenyl)carbonyl]-5-[6-methyl-2-(trifluoromethyl)pyrimidin-4-yl]octahydropyrrolo[3,4-c]pyrrole] | 8
21 | Cc1cc(N(C)C)nc(N2CC3CN(C(=O)c4ccccc4-n4nccn4)CC3C2)n1 (stereo not shown) [Example 119, N,N,6-Trimethyl-2-[5-{[2-(2H-1,2,3-triazol-2-yl)phenyl]carbonyl}hexahydropyrrolo[3,4-c]pyrrol-2(1H)-yl]pyrimidin-4-amine] | 13
22 | Cc1cc(N2CC3CN(C(=O)c4ccccc4-n4nccn4)CC3C2)nc(N(C)C)n1 (stereo not shown) [Example 120, N,N,4-Trimethyl-6-[5-{[2-(2H-1,2,3-triazol-2-yl)phenyl]carbonyl}hexahydropyrrolo[3,4-c]pyrrol-2(1H)-yl]pyrimidin-2-amine] | 13
23 | CN(C)c1nc(N2CC3CN(C(=O)c4ccccc4-n4nccn4)CC3C2)cc(C(F)(F)F)n1 (stereo not shown) [Example 121, N,N-Dimethyl-4-[5-{[2-(2H-1,2,3-triazol-2-yl)phenyl]carbonyl}hexahydropyrrolo[3,4-c]pyrrol-2(1H)-yl]-6-(trifluoromethyl)pyrimidin-2-amine] | 13
24 | Cc1ccc(-n2nccn2)c(C(=O)N2CC3CN(c4nc(C)cnc4C)CC3C2)c1 (stereo not shown) [Example 123, [5-(3,6-Dimethyl-pyrazin-2-yl)-hexahydro-pyrrolo[3,4-c]pyrrol-2-yl]-(5-methyl-2-[1,2,3]triazol-2-yl-phenyl)-methanone] | 79
25 | CCOc1ccc2ccccc2c1C(=O)N1CC2CN(c3nccc(-c4ccccc4)n3)CC2C1 (stereo not shown) [Example 126, 2-[(2-Ethoxynaphthalen-1-yl)carbonyl]-5-(4-phenylpyrimidin-2-yl)octahydro pyrrolo[3,4-c]pyrrole] | 100
26 | Cc1ccc(-n2nccn2)c(C(=O)N2CC3CN(c4nccc(-c5ccccc5)n4)CC3C2)c1 (stereo not shown) [Example 127, 2-{[5-Methyl-2-(2H-1,2,3-triazol-2-yl)phenyl]carbonyl}-5-(4-phenylpyrimidin-2-yl)octahydropyrrolo[3,4-c]pyrrole] | 20
27 | COc1cc(OC)nc(N2CC3CN(C(=O)c4cc(C)ccc4-n4nccn4)CC3C2)n1 (stereo not shown) [Example 129, 2-(4,6-Dimethoxypyrimidin-2-yl)-5-{[5-methyl-2-(2H-1,2,3-triazol-2-yl)phenyl]carbonyl}octahydropyrrolo[3,4-c]pyrrole] | 100
28 | O=C(c1ccccc1-n1nccn1)N1CC2CN(c3nccc(-c4ccccc4)n3)CC2C1 (stereo not shown) [Example 131, 2-(4-Phenylpyrimidin-2-yl)-5-{[2-(2H-1,2,3-triazol-2-yl)phenyl]carbonyl}octahydro pyrrolo[3,4-c]pyrrole] | 79
29 | Cc1cc(C)nc(N2CC3CN(C(=O)c4nc(C)sc4-c4ccccc4F)CC3C2)n1 (stereo not shown) [Example 132, 2-(4,6-Dimethylpyrimidin-2-yl)-5-{[5-(2-fluorophenyl)-2-methyl-1,3-thiazol-4-yl]carbonyl}octahydropyrrolo[3,4-c]pyrrole] | 79
30 | Cc1cccc(N2CC3CN(C(=O)c4ccccc4-c4cccs4)CC3C2)n1 (stereo not shown) [Example 134, 2-(6-Methylpyridin-2-yl)-5-[(2-thiophen-2-ylphenyl)carbonyl]octahydropyrrolo[3,4-c]pyrrole] | 12
31 | Cc1ccnc(N2CC3CN(C(=O)c4ccccc4-n4nccn4)CC3C2)n1 (stereo not shown) [Example 135, 2-(4-Methylpyrimidin-2-yl)-5-{[2-(2H-1,2,3-triazol-2-yl)phenyl]carbonyl}octahydro pyrrolo[3,4-c]pyrrole] | 40

Reference: patent US9586962B2, “Disubstituted octahydropyrrolo [3,4-C] pyrroles as orexin receptor modulators” (Janssen Pharmaceutica NV, priority 2011, dated 2017)
